Experimental data from ChEMBL document CHEMBL4130363, “Synthesis and pharmacological evaluation of benzamide derivatives as potent and selective sigma-1 protein ligands” (Eur J Med Chem, 2017).

Columns and labels:
SH-SY5Y = assay: Cytotoxicity against human SH-SY5Y cells assessed as reduction in cell viability after 72 hrs by MTT assay; type: cell-based
S1R (sigma-1 receptor) = assay: Selectivity index, ratio of IC50 for human SH-SY5Y cells to Ki for S1R in human Jurkat cell membranes; type: toxicity, cell-based
[1] = molecular target: Sigma intracellular receptor 2 (Homo sapiens, UniProt Q5BJF2); assay: Displacement of [3H]-DTG from S2R in human Jurkat cell membranes after 1 hr in presence of (+)-pentazocine by liquid scintillation counting
Chain of Sigma intracellular receptor 2 (Q5BJF2 whole entry): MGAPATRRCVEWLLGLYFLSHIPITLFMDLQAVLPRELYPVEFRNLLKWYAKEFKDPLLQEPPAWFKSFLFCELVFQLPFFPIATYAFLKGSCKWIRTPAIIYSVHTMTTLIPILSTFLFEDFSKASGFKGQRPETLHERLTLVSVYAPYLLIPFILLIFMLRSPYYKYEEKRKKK

[2] = molecular target: Sigma non-opioid intracellular receptor 1 (Homo sapiens, UniProt Q99720); assay: Displacement of [3H](+)-pentazocine from S1R in human Jurkat cell membranes after 2 hrs by liquid scintillation counting
Chain of Sigma non-opioid intracellular receptor 1 (Q99720 whole entry): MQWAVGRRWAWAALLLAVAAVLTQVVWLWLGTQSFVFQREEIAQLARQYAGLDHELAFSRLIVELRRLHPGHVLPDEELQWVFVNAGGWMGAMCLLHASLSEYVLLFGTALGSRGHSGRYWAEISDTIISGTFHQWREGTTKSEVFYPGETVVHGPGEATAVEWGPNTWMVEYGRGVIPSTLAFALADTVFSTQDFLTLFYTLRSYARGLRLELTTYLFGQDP

SMILES: CN(CCCNC(=O)c1cccc(Cl)c1)Cc1ccccc1
- IC50 (SH-SY5Y): > 100000 nM
- selectivity ratio (S1R (sigma-1 receptor)): > 10000

SMILES: CN(CCCNC(=O)c1ccc(Br)cc1F)Cc1ccccc1
- IC50 (SH-SY5Y): > 100000 nM
- selectivity ratio (S1R (sigma-1 receptor)): > 34500
- Ki [1]: 200 nM

SMILES: O=C(NCCCN1CCOCC1)c1ccc(Cl)cc1 [EPROBEMIDE]
- IC50 (SH-SY5Y): > 100000 nM
- Ki [1]: > 200 nM
- Ki [2]: > 100 nM

SMILES: O=C(NCCN1CCCC1)c1ccc(Cl)cc1
- IC50 (SH-SY5Y): > 100000 nM
- Ki [1]: > 200 nM
- Ki [2]: > 100 nM

SMILES: CN1CCN(CCNC(=O)c2ccc(Cl)cc2)CC1
- IC50 (SH-SY5Y): > 100000 nM
- Ki [1]: > 200 nM
- Ki [2]: > 100 nM

SMILES: O=C(NCCN1CCOCC1)c1ccc(Cl)cc1 [MOCLOBEMIDE]
- IC50 (SH-SY5Y): > 100000 nM
- Ki [1]: > 200 nM
- Ki [2]: > 100 nM

SMILES: CN(CCNC(=O)c1cccc(Cl)c1Cl)Cc1ccccc1
- IC50 (SH-SY5Y): > 100000 nM
- selectivity ratio (S1R (sigma-1 receptor)): > 15400
- Ki [1]: 110 nM
- Ki [2]: 6.5 nM

SMILES: CN(CCCNC(=O)c1ccc(F)cc1)Cc1ccccc1
- IC50 (SH-SY5Y): > 100000 nM
- selectivity ratio (S1R (sigma-1 receptor)): > 5000

SMILES: CN(CCCNC(=O)c1cc(Cl)cc(Cl)c1)Cc1ccccc1
- IC50 (SH-SY5Y): 60000 nM
- selectivity ratio (S1R (sigma-1 receptor)): 2610

SMILES: O=C(NCCCN1Cc2ccccc2C1)c1ccc(Cl)cc1
- IC50 (SH-SY5Y): > 100000 nM
- selectivity ratio (S1R (sigma-1 receptor)): > 5260
- Ki [1]: 350 nM
- Ki [2]: 19 nM
